The values that follow come from paper PMC6017115, “Inhibitory Effect of Sauchinone on UDP-Glucuronosyltransferase (UGT) 2B7 Activity” (Molecules : A Journal of Synthetic Chemistry and Natural …, 2018).

Marks after values point to notes of the source that are not given here.

The target of one data set is T1, UGT1A1 (Homo sapiens, UniProt P22309).
T1 construct: The reaction mixture containing 0.25 mg/mL protein of HLM; tissue Corning Life Sciences 452156; host or cells: pooled human liver microsomes, 50 donors
T1 sequence (P22309 26-533): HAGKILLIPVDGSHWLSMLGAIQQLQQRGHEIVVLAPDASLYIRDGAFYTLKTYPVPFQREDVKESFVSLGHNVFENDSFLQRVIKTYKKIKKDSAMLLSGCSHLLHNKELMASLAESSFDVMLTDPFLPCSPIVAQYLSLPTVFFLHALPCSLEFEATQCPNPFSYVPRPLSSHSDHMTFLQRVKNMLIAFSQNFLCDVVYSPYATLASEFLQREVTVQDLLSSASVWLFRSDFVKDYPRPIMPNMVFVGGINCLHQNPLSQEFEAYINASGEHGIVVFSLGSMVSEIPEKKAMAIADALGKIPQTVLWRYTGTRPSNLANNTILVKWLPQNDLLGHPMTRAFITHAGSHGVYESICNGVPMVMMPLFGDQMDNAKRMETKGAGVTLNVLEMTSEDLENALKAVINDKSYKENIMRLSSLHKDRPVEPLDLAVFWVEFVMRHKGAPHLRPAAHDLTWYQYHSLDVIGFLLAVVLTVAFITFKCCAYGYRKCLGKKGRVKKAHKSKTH
The data set is described as follows: Inhibition of UGT1A1 (β-estradiol glucuronidation) in human liver microsomes. The class given is in vitro ADME. Particulars: substrate 10 μM β-estradiol, mean (minimum–maximum). As to the method:
(§1) Their IC50 values were compared to that of sauchinone. […] UGT-mediated activities in the presence of sauchinone as an inhibitor were expressed as percentages of corresponding control values (in absence of sauchinone). From percentages of control activity versus inhibitor concentrations, a sigmoid shaped curve was fitted to the data and IC50 as an enzyme inhibition parameter was calculated by fitting the Hill equation to the data using GraphPad Prism 5 (GraphPad Software Inc., San Diego, CA, USA).
In general terms: Microsomes from liver hold many membrane-bound enzymes, among them those of drug oxidation.

The next data set has as its target T2, UGT1A4 (Homo sapiens, UniProt P22310).
T2 construct: The reaction mixture containing 0.25 mg/mL protein of HLM; tissue Corning Life Sciences 452156; host or cells: pooled human liver microsomes, 50 donors
T2 sequence (P22310 29-534): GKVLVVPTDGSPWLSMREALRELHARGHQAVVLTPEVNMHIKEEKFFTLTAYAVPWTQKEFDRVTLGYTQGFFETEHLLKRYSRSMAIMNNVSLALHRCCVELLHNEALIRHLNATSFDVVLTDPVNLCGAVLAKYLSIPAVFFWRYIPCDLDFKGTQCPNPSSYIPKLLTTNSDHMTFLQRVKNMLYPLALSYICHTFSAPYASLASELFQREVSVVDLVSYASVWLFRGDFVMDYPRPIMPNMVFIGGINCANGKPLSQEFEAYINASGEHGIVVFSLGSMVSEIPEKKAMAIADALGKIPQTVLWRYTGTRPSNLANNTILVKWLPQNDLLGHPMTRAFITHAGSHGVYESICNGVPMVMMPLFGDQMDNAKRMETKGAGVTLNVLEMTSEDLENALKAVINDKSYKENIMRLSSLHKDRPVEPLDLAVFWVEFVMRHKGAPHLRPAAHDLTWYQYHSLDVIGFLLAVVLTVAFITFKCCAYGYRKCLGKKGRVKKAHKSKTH
The data set is described as follows: Inhibition of UGT1A4 (trifluoperazine glucuronidation) in human liver microsomes. The class given is in vitro ADME. The procedure: as §1

Another data set concerns the target T3, UGT1A9 (Homo sapiens, UniProt O60656).
T3 construct: The reaction mixture containing 0.25 mg/mL protein of HLM; tissue Corning Life Sciences 452156; host or cells: pooled human liver microsomes, 50 donors
T3 sequence (O60656 26-530): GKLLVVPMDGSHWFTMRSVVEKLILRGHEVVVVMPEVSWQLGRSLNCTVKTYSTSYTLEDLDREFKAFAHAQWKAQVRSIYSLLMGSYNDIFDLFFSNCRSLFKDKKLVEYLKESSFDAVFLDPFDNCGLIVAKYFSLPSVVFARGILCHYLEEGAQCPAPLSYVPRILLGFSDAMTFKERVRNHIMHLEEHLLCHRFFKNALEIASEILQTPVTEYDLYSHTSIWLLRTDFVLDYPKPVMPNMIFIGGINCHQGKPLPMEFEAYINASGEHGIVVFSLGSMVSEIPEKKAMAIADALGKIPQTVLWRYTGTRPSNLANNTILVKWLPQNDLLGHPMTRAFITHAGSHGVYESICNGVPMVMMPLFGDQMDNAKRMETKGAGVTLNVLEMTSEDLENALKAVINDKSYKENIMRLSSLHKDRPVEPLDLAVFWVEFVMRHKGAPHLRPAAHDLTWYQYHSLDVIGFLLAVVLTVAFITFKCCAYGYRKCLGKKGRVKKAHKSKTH
The data set is described as follows: Inhibition of UGT1A9 (propofol glucuronidation) in human liver microsomes. The class given is in vitro ADME. Conditions: substrate 100 μM propofol, mean (minimum–maximum). As to the method:
as §1

A further data set concerns the target T4, UGT2B7 (Homo sapiens, UniProt P16662).
T4 sequence (P16662 24-529): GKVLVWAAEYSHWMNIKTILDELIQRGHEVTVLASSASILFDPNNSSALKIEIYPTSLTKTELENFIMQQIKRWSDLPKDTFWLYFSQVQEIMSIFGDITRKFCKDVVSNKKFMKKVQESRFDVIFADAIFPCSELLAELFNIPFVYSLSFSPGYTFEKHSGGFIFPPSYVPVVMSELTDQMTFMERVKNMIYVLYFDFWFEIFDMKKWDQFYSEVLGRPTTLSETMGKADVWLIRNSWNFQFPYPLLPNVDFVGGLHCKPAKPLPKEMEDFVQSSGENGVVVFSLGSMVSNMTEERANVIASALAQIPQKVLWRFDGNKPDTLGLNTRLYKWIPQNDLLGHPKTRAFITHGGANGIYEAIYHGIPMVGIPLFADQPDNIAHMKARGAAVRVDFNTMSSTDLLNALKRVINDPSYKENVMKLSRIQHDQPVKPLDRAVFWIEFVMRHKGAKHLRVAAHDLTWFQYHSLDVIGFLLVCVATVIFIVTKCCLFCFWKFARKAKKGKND
The data set is described as follows: Enzyme kinetic assay (Ki, Dixon plot) of UGT2B7-mediated zidovudine glucuronidation. Particulars: human, pH 7.6. The procedure: Inhibitory effects of sauchinone on UGT1A1, 1A3, 1A4, 1A6, 1A9, and 2B7 activities were evaluated using HLMs. […] Spiked volume of UGT cocktail set was 1% (v/v) of total volume of mixture. […] The reaction was initiated by adding 5 mM UDPGA to a final volume of 150 μL and incubated at 37 °C for 15 or 60 min in a thermomixer at 500 rpm. Each reaction was stopped by adding 150 μL of ice-cold methanol containing 50 ng/mL IS. These mixtures were then centrifuged (12,000 rpm for 10 min at 4 °C) and 5 μL of the supernatant was injected into a UPLC-MS/MS system. […] Their IC50 values were compared to that of sauchinone. All inhibitors were dissolved in methanol (except for hecogenin, which was dissolved in dimethyl sulfoxide) and serially diluted to the required concentrations using the same solutions. The final concentration of organic solvent of inhibitors was 1% (v/v). All studies were performed in triplicate and mean values were used in the analysis. The half maximal inhibition constant (IC50) of sauchinone on UGT isoforms was estimated using GraphPad program.
Based on IC50 values, Ki values of sauchinone for UGT1A6 and 2B7 were determined. Concentrations of 0–200 μM of sauchinone were used. Other procedures were similar to those mentioned above in the study of reversible inhibitory effects of sauchinone. Inhibitory characteristics of sauchinone were initially estimated by nonlinear least squares regression analysis and Ki values were determined by Dixon plots.

A short description of data set [1]: Pharmacokinetic study of zidovudine with or without sauchinone in mice. Conditions: for CLNR / AUC(0-t) / AUC / clearance / CL renal / MRT / Vd / half-life / Ae0–24 h / GI24 h: mean ± SD, n = 11; for AUC(0-t) / AUC / clearance / CL renal / MRT / Vd / half-life: mouse, plasma, iv, 15 mg/kg; for AUC(0-t): AUC480 min; for AUC: time zero to infinity; for clearance: CL; for CL renal: CLR; for Vd: Vss; for half-life: t1/2, mice; for Ae0–24 h: zidovudine excreted into urine for 24 h; for GI24 h: zidovudine remaining or excreted in GI at 24 h.

Substrate in data set [2]: NCCc1c[nH]c2ccc(O)cc12
The data set can be described thus: purified protein, by the assay type. Particulars: other: without sauchinone; pH 7.6; 37.0 °C.

Where [3] appears, read: mice, zidovudine 15 mg/kg iv with oral 100 mg/kg sauchinone.
The mark [4] stands for this setting: mice, zidovudine 15 mg/kg iv with vehicle.
[5] abbreviates: mice, zidovudine 15 mg/kg iv, oral 100 mg/kg sauchinone.

Turning to `O=c1cc(-c2ccccc2)oc2cc(O)cc(O)c12` [Chrysin], the IC50 (commonly the concentration needed to halve the response being measured) against UGT1A1 turned out to be 28.3 µM.

On UGT1A4, `C[C@@H]1CC[C@@]2(OC1)O[C@H]1C[C@H]3[C@@H]4CC[C@H]5C[C@@H](O)CC[C@]5(C)[C@H]4CC(=O)[C@]3(C)[C@H]1[C@@H]2C` [Hecogenin] showed an IC50 of 3.99 µM.

Consider `O=C(O)c1cccnc1Nc1cccc(C(F)(F)F)c1` [Niflumic acid], for which 0.755 µM corresponded to half-maximal inhibition on UGT1A9 (IC50).

For the molecule `Cc1cn([C@H]2C[C@H](N=[N+]=[N-])[C@@H](CO)O2)c(=O)[nH]c1=O` [zidovudine], on UGT2B7, the Km (as a rule, the concentration of substrate that gives half-maximal velocity) came to 85 µM. In data set [1] (setting [3]), the CLNR is given as 24.5 ± 9.31 ^a mL/min/kg; the AUC(0-t) (commonly the area under the concentration-time curve up to a stated or last time point) was 5730 ng·h/mL; the AUC (in general, the area under the concentration-time curve, a measure of exposure) is 5820 ng·h/mL; the clearance stood at 48.6 ± 16.1 mL/min/kg. For the same molecule, in data set [1] (setting [3]), the CL renal turned out to be 24 ± 8.02 mL/min/kg, the mean residence time MRT (commonly the average time that molecules of a dose stay in the body) was 0.725 h, the Vd was 2.1 ± 1.23 L/kg and the “Ae0–24 h” value is 50.2 ± 8.41 % of dose. The GI24 h in data set [1] (setting [3]) is 0.321 ± 0.646 % of dose. In data set [1] (setting [4]), this molecule gave a CLNR of 34.8 ± 10.5 mL/min/kg, an AUC(0-t) of 3780 ng·h/mL, an AUC of 3800 ng·h/mL and a clearance of 68.7 ± 18.7 mL/min/kg. Besides, in data set [1] (setting [4]), the CL renal came out at 34 ± 11.2 mL/min/kg, the MRT is 0.93 h, the Vd is 3.31 ± 1.67 L/kg and the “Ae0–24 h” value is listed as 50.3 ± 8.01 % of dose. Further, the GI24 h in data set [1] (setting [4]) was 0.672 ± 0.999 % of dose. In data set [1] (setting [5]), the “decrease of CL of zidovudine with sauchinone compared to without” value was 29.3%, the “decrease of CLNR of zidovudine with sauchinone compared to without” value worked out at 29.6% and the “increase of AUC480 min of zidovudine with sauchinone compared to without” value was 53.1%. Further, the half-life (commonly the time needed for the level to fall by half in the phase considered) in data set [1] (zidovudine 15 mg/kg iv with oral 100 mg/kg sauchinone) stood at 2.97 ± 1.55 h. In data set [1] (zidovudine 15 mg/kg iv with vehicle), this molecule yielded a half-life of 3.45 ± 2.22 h.

B1: UGT1A6 (Homo sapiens) (protein)
chain: DKLLVVPQDGSHWLSMKDIVEVLSDRGHEIVVVVPEVNLLLKESKYYTRKIYPVPYDQEELKNRYQSFGNNHFAERSFLTAPQTEYRNNMIVIGLYFINCQSLLQDRDTLNFFKESKFDALFTDPALPCGVILAEYLGLPSVYLFRGFPCSLEHTFSRSPDPVSYIPRCYTKFSDHMTFSQRVANFLVNLLEPYLFYCLFSKYEELASAVLKRDVDIITLYQKVSVWLLRYDFVLEYPRPVMPNMVFIGGINCKKRKDLSQEFEAYINASGEHGIVVFSLGSMVSEIPEKKAMAIADALGKIPQTVLWRYTGTRPSNLANNTILVKWLPQNDLLGHPMTRAFITHAGSHGVYESICNGVPMVMMPLFGDQMDNAKRMETKGAGVTLNVLEMTSEDLENALKAVINDKSYKENIMRLSSLHKDRPVEPLDLAVFWVEFVMRHKGAPHLRPAAHDLTWYQYHSLDVIGFLLAVVLTVAFITFKCCAYGYRKCLGKKGRVKKAHKSKTH
With B1, in data set [2], the Km was 126 µM and the Vmax was 174 μM/min/mg protein.
